Experimental data: US20230312510A1, “COMPOUNDS AND METHODS FOR TREATING NEURODEGENERATIVE DISEASES” (The McLean Hospital Corporation, priority 2020, published 2023)
≈ marks a conversion by molar mass, not a printed value. Where “and” joins values, the source holds several entries; their conditions need not be identical. Equal entries are not always repeated.

Columns and labels:
Nurr1-LBD [1] = biological target: T1, Nurr1-LBD (Homo sapiens, UniProt P43354); experiment: Radioligand competition binding assay using [3H]-CQ
T1 sequence (P43354 360-595 limits assumed): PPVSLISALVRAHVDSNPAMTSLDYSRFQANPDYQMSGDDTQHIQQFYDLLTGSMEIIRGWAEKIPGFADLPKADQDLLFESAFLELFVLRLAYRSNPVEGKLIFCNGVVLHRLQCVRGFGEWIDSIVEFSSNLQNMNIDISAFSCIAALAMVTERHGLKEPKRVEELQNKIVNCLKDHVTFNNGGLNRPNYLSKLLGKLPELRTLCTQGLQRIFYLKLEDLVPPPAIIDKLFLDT

full-length Nurr1 = biological target: T2, full-length Nurr1 (Homo sapiens, UniProt P43354); experiment: Luciferase activity assay (p4xNL3-Luc reporter) with full-length Nurr1 in SK-N-BE(2)C cells; format: cell-based
T2 construct: expressed in transfected cells; host or cells: SK-N-BE(2)C human neuroblastoma cells
T2 sequence (P43354 whole entry): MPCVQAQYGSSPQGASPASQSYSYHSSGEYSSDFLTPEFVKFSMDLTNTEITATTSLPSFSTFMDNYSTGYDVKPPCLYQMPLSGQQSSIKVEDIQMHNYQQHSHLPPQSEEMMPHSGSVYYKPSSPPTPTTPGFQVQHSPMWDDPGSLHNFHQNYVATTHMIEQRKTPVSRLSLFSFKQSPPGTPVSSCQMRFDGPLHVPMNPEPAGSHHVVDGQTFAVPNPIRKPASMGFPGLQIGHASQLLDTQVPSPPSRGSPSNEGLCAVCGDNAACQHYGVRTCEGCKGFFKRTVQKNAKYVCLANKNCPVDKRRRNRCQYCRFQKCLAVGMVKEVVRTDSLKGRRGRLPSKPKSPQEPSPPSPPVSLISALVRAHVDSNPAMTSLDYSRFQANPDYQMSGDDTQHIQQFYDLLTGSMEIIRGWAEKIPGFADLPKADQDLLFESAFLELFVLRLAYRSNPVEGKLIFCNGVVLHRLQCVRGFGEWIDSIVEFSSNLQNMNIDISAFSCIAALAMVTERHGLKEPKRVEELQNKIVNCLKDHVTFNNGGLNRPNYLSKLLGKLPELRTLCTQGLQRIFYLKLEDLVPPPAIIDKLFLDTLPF

[2] = test system: Nurr1-LBD and full-length Nurr1; experiment: Luciferase activity assay (Nurr1 transactivation) in MN9D cells; format: cell-based, murine
[3] = test system: Nurr1-LBD and full-length Nurr1; experiment: Luciferase activity assay (Nurr1 transactivation) in N27-A cells; format: cell-based, murine
Nurr1 = biological target: T3, Nurr1 (Homo sapiens, UniProt P43354); experiment: Relative luciferase activity versus previously reported compounds in SK-N-BE(2)C cells; format: cell-based; conditions: compared with control, AQ, CQ, SM-485, ATH-393, SR-175
T3 construct: expressed in transfected cells; host or cells: SK-N-BE(2)C cells
T3 sequence (P43354 whole entry): as above
From the text: Each bar indicates Mean±SEM from three independent experiments.

[4] = Brain permeability (plasma and brain levels by LC-MS/MS) after i.v. injection; format: in vivo; conditions: rats, 5 mg/kg i.v., 5 min and 1 hr
Protocol: Rats (n=6) were killed at 5 min and 1 hr after i.v. administration, and brain and plasma were collected for blood-brain barrier (BBB) penetration analysis. The concentrations of each compound in plasma (A) and brain (B) were determined by LC-MS/MS (liquid chromatography-tandem mass spectrometry). The brain/plasma ratio (B/P ratio) (C) is calculated at each time point.

[5] = test system: mouse embryonic ventral mesencephalic (mVM) primary neurons; experiment: Dopaminergic gene expression in mVM primary neurons with or without 6-OHDA; format: cell-based
Protocol: FIGS. 8A-8D show dopaminergic (DAergic) gene expressions in the absence or presence of 6-OHDA (20 μM) in mouse embryonic ventral mesencephalic (mVM) primary neurons derived from embryonic day 12.5 (E12.5).

BV2 cells = experiment: LPS-induced TNFα mRNA expression in BV2 cells (real-time PCR); format: cell-based, mouse; conditions: LPS 1 μg/ml, compound 1 μM
From the text: (§1) Besides the role as an activator of DAergic genes, Nurr1 is known as a repressor of inflammatory genes in astrocytes and microglia (See Saijo et al., Cell 2009, 137, 47-59).

[6] = test system: mouse bone marrow-derived primary macrophages (mBMMs); experiment: LPS- or poly(I:C)-induced pro-inflammatory gene expression in mBMMs; format: cell-based; conditions: CQ 10 μM, SPV-94 1 μM
From the text: as §1

HeLa cells = experiment: Starvation-induced autophagy in HeLa cells (Western blot of LC3B and p62); format: cell-based; conditions: EBSS 0-4 hrs, BafA1 10 nM, CQ 20 μM, SPV-94 1 μM
Protocol: To limit basal autophagy, cells were incubated in fresh growth medium for 1 hr before starvation. Samples were analyzed by Western blot using autophagic flux markers LC3B and p62 (A) and its expression levels were quantified (10B and 10C).

N27-A cells [7] = experiment: Starvation-induced autophagy and Nurr1 expression in N27-A cells with or without MPP+; format: cell-based
Protocol: LC3B, p62 and Nurr1 expression levels determined by Western blot (D) were quantified.
Next, autophagy regulation was assessed in a dopaminergic cell line N27-A in the absence or presence of MPP^+ (1 mM). […] Furthermore, it was observed that MPP disrupted autophagy showing accumulated LC3B-II and remained p62 at the late-stage, which corresponds to the previous studies (See Lim et al., Autophagy 2011, 7, 51-60; Hung et al., PLoS ONE 2014, 9, e91074; Park et al., J Biol Chem 2016, 291, 3531-3540).
Referring to FIGS. 10D-10G, N27-A cells were treated with vehicle or MPP+ (1 mM) for 24 hrs and then changed with fresh growth medium with or without MPP+ 1 hr before starvation. […] To induce autophagy, N27-A cells were incubated in EBSS for 0-4 hrs, in the absence or presence of MPP+. Samples were analyzed by Western blot using autophagic flux markers LC3B and p62 (D) and its expression levels were quantified (10E and 10F). […] (10G) Nurr1 expression level changes were also analyzed and quantified.

[8] = pH 7.4
MN9D cells [9] = test system: MN9D cells
Protocol: (§2) Cell viability and cytotoxicity were measured by MTT (3-(4,5-dimethylthiazol-2-yl)-2,5-diphenyltetrazolium bromide) reduction assay.
(§3) Cell viability and cytotoxicity were measured by lactate dehydrogenase (LDH) release assay.

[10] = test system: MPTP-induced PD model mice; conditions: mouse, in vivo
Protocol: (§4) Sub-chronic MPTP regimen (30 mg/kg/day, 5 days) was introduced.

[11] = test system: MPTP-induced PD model mice; experiment: Sub-chronic MPTP-induced mice model of PD
Protocol: as §4

N27-A cells [12] = experiment: Protection against MPP+-induced toxicity in N27-A cells (MTT, LDH); conditions: 1 mM MPP+
Nurr1-LBD [13] = biological target: T1, Nurr1-LBD; experiment: Luciferase activity assay (p4xNL3-Luc reporter) with Nurr1-LBD in SK-N-BE(2)C cells; format: cell-based; set-up: expressed in transfected cells; host or cells: SK-N-BE(2)C human neuroblastoma cells
MN9D cells [14] = experiment: Protection against MPP+-induced toxicity in MN9D cells (MTT reduction, LDH release)
Protocol: as §2, §3

[15] = L-DOPA 50, CQ 40, SPV-94 5 mg/kg/day

CCN1CCN(c2cc(NCCNc3ccnc4cc(Cl)ccc34)nc(N3CCN(CC)CC3)n2)CC1 [SPV-94]
Ki (Nurr1-LBD [1]): 0.0111 µM
IC50 (Nurr1-LBD [1]; 1,000 nM [3H]-CQ, 0.2 μM Nurr1-LBD, estimated, read-out: half maximal inhibitory concentration (IC50), competition with [3H]-CQ for binding to Nurr1-LBD): 0.05 µM
times higher affinity to Nurr1-LBD than CQ, based on IC50s (Nurr1-LBD [1]; versus CQ): 20 times
concentration of maximal efficiency, full-length Nurr1 transcriptional activity (full-length Nurr1; SK-N-BE(2)C cells): 20 µM
EC50 (full-length Nurr1; SK-N-BE(2)C cells, read-out: EC50, transcriptional activity of full-length Nurr1): ~10 µM and 10 µM
fold lower concentration of maximal efficiency than CQ, full-length Nurr1 (full-length Nurr1; versus CQ): 5 fold
EC50 [2]: ~0.05 µM
transcriptional activities of Nurr1-LBD and full-length Nurr1 [2]: enhanced transcriptional activities
EC50 [3]: ~0.05 µM
transcriptional activities of Nurr1-LBD and full-length Nurr1 [3]: enhanced transcriptional activities
relative luciferase activity (transactivity) among selected candidates (Nurr1): markedly highest transactivity among the selected candidates
penetration into the brain (brain and plasma concentration, B/P ratio) [4]: penetrated into the brain slower than CQ and consistently maintained its level
DAergic gene expressions downregulated by 6-OHDA toxicity ([5]; 6-OHDA 20 μM, CQ 20 μM, SPV-94 0.5 μM): significant recovery of downregulated DAergic gene expressions
mRNA expression levels of DAergic genes (TH, DAT, AADC, VMAT2, c-Ret, Pitx3) ([5]; CQ 20 μM, SPV-94 0.5 μM, vs vehicle): significantly upregulated mRNA expression levels of DAergic genes
effects on DAergic gene expression in Nurr1 knockdown condition ([5]; Nurr1 KD): disappeared
suppression of TNFα expression compared to LPS only (BV2 cells): 20.67%
LPS- or poly(I:C)-induced pro-inflammatory gene expressions (TNFα, iNOS, IL-1β, IL-6) [6]: dramatically suppressed all four pro-inflammatory gene expressions
autophagy process (LC3B, p62) (HeLa cells): initiated and also terminated autophagy process resulting in significant p62 degradation
basal Nurr1 expression level compared to VEH (N27-A cells [7]; CQ 20 μM, SPV-94 1 μM): significantly higher
MPP+-induced autophagy dysregulation (p62 degradation) (N27-A cells [7]; MPP+ 1 mM): seemed to protect N27-A cells from MPP+-induced autophagy dysregulation leading to successful p62 degradation
Nurr1 expression against MPP+ (N27-A cells [7]; MPP+ 1 mM, SPV-94 1 μM): maintained Nurr1 expression against MPP+
autophagy termination (LC3B, p62) (N27-A cells [7]; starvation 0-4 hrs, BafA1 10 nM, CQ 20 μM, SPV-94 1 μM): autophagy was successfully terminated
solubility [8]: 504.88 µM (≈ 265 µg/mL)
times lower concentration of maximal efficiency than CQ, protection from MPP+-induced cytotoxicity (MN9D cells [9]): 10 times
dyskinesia in the abnormal involuntary movements (AIMs) test [10]: did not trigger dyskinesia
olfactory discrimination test (olfaction), sub-acute stage [11]: significantly recovered olfaction
body weight recovery [11, 15]: restored it even earlier, after day 6
cylinder test, rearing numbers, sub-chronic treatment [11, 15]: recovered rearing numbers in the cylinder test
pole test, time to traverse, sub-chronic treatment [11, 15]: reduced time to traverse on a pole
rotarod latency to fall, sub-chronic treatment [11, 15]: significantly improved motor deficits on the rotarod latency to fall
Nurr1-immunoreactive cells ([11]; SNpc): significantly retained Nurr1-immunoreactive cells
GFAP immunoreactivity, activated astrocytes ([11]; STR): reduced number of activated astrocytes
Iba-1+ microglia numbers ([11]; STR and SNpc): significantly reduced numbers of Iba-1+ microglia
TH+ DAergic neurons (counting and densitometry) ([11]; STR, SNpc and OB): significantly restored DAergic neurons
olfactory discrimination test (olfaction), chronic treatment ([11]; day 14): significantly recovered olfaction
rotarod latency to fall, chronic treatment ([11]; day 15): improved latency to fall on the rotarod on day 15
cell viability, MTT assay (N27-A cells [12]): dose-dependently increased cell viability in MTT assay
concentration of maximal efficiency, Nurr1-LBD transcriptional activity (Nurr1-LBD [13]; SK-N-BE(2)C cells): 20 µM
EC50 (Nurr1-LBD [13]; SK-N-BE(2)C cells, read-out: EC50, transcriptional activity of Nurr1-LBD): ~10 µM and 10 µM
fold lower concentration of maximal efficiency than CQ, Nurr1-LBD (Nurr1-LBD [13]; versus CQ): 5 fold
cell viability, MTT reduction assay (MN9D cells [14]; 500 μM MPP+): dose-dependently increased cell viability
protective effect against MPP+-induced toxicity under Nurr1 overexpression (OE) (MN9D cells [14]; CQ 100 μM, SPV-94 1 μM, vs Mock): potentiated protective effects
